Assay results taken from patent US20260355212A1 (priority 2022, published 2026).
Where two headings read alike, the source gives them in different places.

What was measured:
MERS Mpro = MERS Mpro (Middle East respiratory syndrome-related coronavirus, UniProt K9N7C7); assay: biochemical; set-up: species or system MERS-CoV
SARS-CoV-1 Mpro = SARS-CoV-1 Mpro (Severe acute respiratory syndrome coronavirus, UniProt P0C6X7); assay: biochemical
HCoV-OC43 Mpro = HCoV-OC43 Mpro (Human coronavirus OC43, UniProt P0C6X6); assay: HCoV-OC43 Mpro enzymatic inhibition assay (fluorescence); format: biochemical
Chain of HCoV-OC43 Mpro (P0C6X6 3247-3549 limits assumed): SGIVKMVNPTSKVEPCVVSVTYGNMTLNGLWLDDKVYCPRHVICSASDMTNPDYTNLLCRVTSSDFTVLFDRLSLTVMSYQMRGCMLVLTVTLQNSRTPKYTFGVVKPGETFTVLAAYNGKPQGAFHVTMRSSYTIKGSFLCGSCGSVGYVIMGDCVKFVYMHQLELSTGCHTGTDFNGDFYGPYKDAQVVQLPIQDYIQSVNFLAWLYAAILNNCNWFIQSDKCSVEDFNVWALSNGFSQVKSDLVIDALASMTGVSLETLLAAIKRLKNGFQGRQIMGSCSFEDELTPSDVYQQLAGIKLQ
Summary of the method: (§1)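 Steps: compound dilution series (3-fold, 10 doses) dispensed; Mpro added and pre-incubated 30 min at room temperature; substrate added; plates incubated 60 min at 30 °C; fluorescence measured at Ex/Em=340 nm/490 nm.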

HCoV-NL63 Mpro = HCoV-NL63 Mpro (Human coronavirus NL63, UniProt P0C6X5); assay: HCoV-NL63 Mpro enzymatic inhibition assay (fluorescence); format: biochemical
Chain of HCoV-NL63 Mpro (P0C6X5 2940-3242 limits assumed): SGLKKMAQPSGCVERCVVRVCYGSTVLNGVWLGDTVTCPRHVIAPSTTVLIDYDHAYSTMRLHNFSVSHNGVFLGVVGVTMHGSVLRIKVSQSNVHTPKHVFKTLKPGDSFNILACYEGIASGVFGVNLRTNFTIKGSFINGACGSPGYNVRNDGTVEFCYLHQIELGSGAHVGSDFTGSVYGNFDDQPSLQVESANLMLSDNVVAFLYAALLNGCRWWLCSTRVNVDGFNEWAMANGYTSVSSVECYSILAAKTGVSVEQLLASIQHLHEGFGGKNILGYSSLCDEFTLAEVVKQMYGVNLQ
Summary of the method: as §1

HCoV-HKU1 Mpro = HCoV-HKU1 Mpro (Human coronavirus HKU1, UniProt P0C6X2); assay: HCoV-HKU1 Mpro enzymatic inhibition assay (fluorescence); format: biochemical
Chain of HCoV-HKU1 Mpro (P0C6X2 3335-3637 limits assumed): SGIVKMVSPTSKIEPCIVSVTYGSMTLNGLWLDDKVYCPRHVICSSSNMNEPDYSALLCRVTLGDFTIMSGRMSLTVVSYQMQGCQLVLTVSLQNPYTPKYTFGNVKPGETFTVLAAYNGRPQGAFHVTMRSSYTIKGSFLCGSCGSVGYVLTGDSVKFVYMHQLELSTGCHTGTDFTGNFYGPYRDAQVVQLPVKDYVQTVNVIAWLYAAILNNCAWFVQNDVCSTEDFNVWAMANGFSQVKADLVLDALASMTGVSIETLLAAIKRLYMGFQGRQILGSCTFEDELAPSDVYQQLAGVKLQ
Summary of the method: as §1

SARS-CoV-2 Mpro = SARS-CoV-2 Mpro (Severe acute respiratory syndrome coronavirus 2, UniProt P0DTD1); assay: SARS-CoV-2 Mpro enzymatic inhibition assay (fluorescence); format: biochemical
Summary of the method: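 A fluorescence readout (340 nm excitation, 490 nm emission) was taken after the substrate reaction ran 60 min at 30° C. Before substrate addition, E. coli-expressed protease and compound (3-fold dilutions, 10 doses, duplicates) sat together 30 min at room temperature. Percent inhibition was fitted by variable-slope nonlinear regression to give IC50.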

HCoV-229E Mpro = HCoV-229E Mpro (Human coronavirus 229E, UniProt P0C6X1); assay: HCoV-229E Mpro enzymatic inhibition assay (fluorescence); format: biochemical
Chain of HCoV-229E Mpro (P0C6X1 2966-3267 limits assumed): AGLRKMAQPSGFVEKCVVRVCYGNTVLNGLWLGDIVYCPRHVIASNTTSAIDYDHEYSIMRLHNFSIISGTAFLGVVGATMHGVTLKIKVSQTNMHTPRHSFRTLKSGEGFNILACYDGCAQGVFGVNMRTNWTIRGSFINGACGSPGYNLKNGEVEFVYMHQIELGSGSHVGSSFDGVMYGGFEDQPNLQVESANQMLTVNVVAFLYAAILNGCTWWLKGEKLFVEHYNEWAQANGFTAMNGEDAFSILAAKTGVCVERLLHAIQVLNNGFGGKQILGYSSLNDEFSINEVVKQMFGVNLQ

[1] = mean, 25 nM protein, 25 μM substrate, 30 min pre-incubation, 60 min at 30° C., read-out: Mpro_SARS-CoV-2 mean IC50

Chain of MERS Mpro (K9N7C7 3248-3553 limits assumed): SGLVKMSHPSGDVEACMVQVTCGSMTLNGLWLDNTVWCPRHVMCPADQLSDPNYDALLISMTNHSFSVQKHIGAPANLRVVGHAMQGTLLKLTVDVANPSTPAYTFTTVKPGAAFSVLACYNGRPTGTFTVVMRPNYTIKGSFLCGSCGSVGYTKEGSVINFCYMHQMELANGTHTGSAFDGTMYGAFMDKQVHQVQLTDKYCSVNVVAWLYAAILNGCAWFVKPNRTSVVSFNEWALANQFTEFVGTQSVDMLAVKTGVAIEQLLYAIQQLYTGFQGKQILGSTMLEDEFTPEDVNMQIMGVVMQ

| SMILES | IC50 (MERS Mpro) | IC50 (SARS-CoV-1 Mpro) | IC50 (HCoV-OC43 Mpro) | IC50 (HCoV-NL63 Mpro) | IC50 (HCoV-HKU1 Mpro) | IC50 (SARS-CoV-2 Mpro) | IC50 (HCoV-229E Mpro) | IC50 (SARS-CoV-2 Mpro; [1]) |
| --- | --- | --- | --- | --- | --- | --- | --- | --- |
| N#Cc1cccc2cc(C(=O)N3C[C@H](C4CCCCC4)C[C@H]3C(=O)N[C@H](C=O)C[C@@H]3CCNC3=O)[nH]c12 [Compound 75, (2S,4S)-1-(7-cyano-1H-indole-2-carbonyl)-4-cyclohexyl-N—((S)-1-oxo-3-((S)-2-oxopyrrolidin-3-yl)propan-2-yl)pyrrolidine-2-carboxamide] | 604 nM | 66 nM | 57 nM | 754 nM | 16.6 nM | 32.3 nM | 64 nM | – |
| N#Cc1cccc2[nH]c(C(=O)N3CC4(CC4)C[C@H]3C(=O)N[C@H](C=O)C[C@@H]3CCNC3=O)cc12 [Compound 76, (S)-5-(4-Cyano-1H-indole-2-carbonyl)-N—((S)-1-oxo-3-((S)-2-oxopyrrolidin-3-yl)propan-2-yl)-5-azaspiro[2.4]heptane-6-carboxamide] | 200 nM | 60.6 nM | 30.1 nM | 33 nM | 13.1 nM | 32.7 nM | 26.9 nM | – |
| Cc1ccc(F)c2[nH]c(C(=O)N3C[C@H]4[C@@H]([C@H]3C(=O)N[C@H](C=O)C[C@@H]3CCNC3=O)C4(C)C)cc12 [Compound 77, (1R,2S,5S)-3-(7-Fluoro-4-methyl-1H-indole-2-carbonyl)-6,6-dimethyl-N—((S)-1-oxo-3-((S)-2-oxopyrrolidin-3-yl)propan-2-yl)-3-azabicyclo[3.1.0]hexane-2-carboxamide] | 401 nM | 27.6 nM | 83.8 nM | 99.2 nM | 45.3 nM | 33.1 nM | 41.9 nM | – |
| CC1(C)[C@@H]2[C@@H](C(=O)N[C@H](C=O)C[C@@H]3CCNC3=O)N(C(=O)c3cc4occc4[nH]3)C[C@@H]21 [Compound 78, (1R,2S,5S)-3-(4H-Furo[3,2-b]pyrrole-5-carbonyl)-6,6-dimethyl-N—((S)-1-oxo-3-((S)-2-oxopyrrolidin-3-yl)propan-2-yl)-3-azabicyclo[3.1.0]hexane-2-carboxamide] | 479 nM | 86.8 nM | 66.9 nM | 81.3 nM | 51.1 nM | 33.3 nM | 37.4 nM | – |
| CC1(C)[C@@H]2[C@@H](C(=O)N[C@H](C=O)C[C@@H]3CCCNC3=O)N(C(=O)CC3CCCCC3)C[C@@H]21 [Compound 79, (1R,2S,5S)-3-(2-Cyclohexylacetyl)-6,6-dimethyl-N—((S)-1-oxo-3-((S)-2-oxopiperidin-3-yl)propan-2-yl)-3-azabicyclo[3.1.0]hexane-2-carboxamide] | 177 nM | 25.9 nM | 38.6 nM | 57.8 nM | 27.1 nM | 34.5 nM | 50.8 nM | – |
| CC1(C)[C@@H]2[C@@H](C(=O)N[C@H](C=O)C[C@@H]3CCNC3=O)N(C(=O)c3cc4cc(S(C)(=O)=O)ccc4[nH]3)C[C@@H]21 [Compound 80, (1R,2S,5S)-6,6-Dimethyl-3-(5-(methylsulfonyl)-1H-indole-2-carbonyl)-N—((S)-1-oxo-3-((S)-2-oxopyrrolidin-3-yl)propan-2-yl)-3-azabicyclo[3.1.0]hexane-2-carboxamide] | 384 nM | 75.5 nM | 63.3 nM | 48.2 nM | 22.5 nM | 35 nM | 28.6 nM | – |
| O=C[C@H](C[C@@H]1CCNC1=O)NC(=O)[C@@H]1C[C@@H](C2CCCCC2)CN1C(=O)c1cc2cccc(Cl)c2[nH]1 [Compound 81, (2S,4S)-1-(7-chloro-1H-indole-2-carbonyl)-4-cyclohexyl-N—((S)-1-oxo-3-((S)-2-oxopyrrolidin-3-yl)propan-2-yl)pyrrolidine-2-carboxamide] | 2980 nM | 125 nM | 173 nM | 1050 nM | 37 nM | 35.3 nM | 78.2 nM | – |
| N#Cc1ccc2cc(C(=O)N3CC4(CC4)C[C@H]3C(=O)N[C@H](C=O)C[C@@H]3CCNC3=O)[nH]c2c1 [Compound 82, (S)-5-(6-Cyano-1H-indole-2-carbonyl)-N—((S)-1-oxo-3-((S)-2-oxopyrrolidin-3-yl)propan-2-yl)-5-azaspiro[2.4]heptane-6-carboxamide] | 176 nM | 35.1 nM | 33.7 nM | 30.1 nM | 10.6 nM | 35.5 nM | 26.1 nM | – |
| CC1(C)[C@@H]2[C@@H](C(=O)N[C@H](C=O)C[C@@H]3CCNC3=O)N(C(=O)c3cc4ncccc4[nH]3)C[C@@H]21 [Compound 83, (1R,2S,5S)-6,6-dimethyl-N—((S)-1-oxo-3-((S)-2-oxopyrrolidin-3-yl)propan-2-yl)-3-(1H-pyrrolo[3,2-b]pyridine-2-carbonyl)-3-azabicyclo[3.1.0]hexane-2-carboxamide] | 436 nM | 116 nM | 81.3 nM | 58.9 nM | 39 nM | 35.5 nM | 46.3 nM | – |
| O=C[C@H](C[C@@H]1CCNC1=O)NC(=O)[C@@H]1CC2(CCC2)CN1C(=O)C1(c2ccccc2)CC1 [Compound 84, (S)—N—((S)-1-Oxo-3-((S)-2-oxopyrrolidin-3-yl)propan-2-yl)-6-(1-phenylcyclopropanecarbonyl)-6-azaspiro[3.4]octane-7-carboxamide] | 703 nM | 88.3 nM | 41.2 nM | 185 nM | 17.3 nM | 36 nM | 47.6 nM | – |
| Cc1cccc2[nH]c(C(=O)N3C[C@H]4[C@@H]([C@H]3C(=O)N[C@H](C=O)C[C@@H]3CCNC3=O)C4(C)C)cc12 [Compound 85, (1R,2S,5S)-6,6-Dimethyl-3-(4-methyl-1H-indole-2-carbonyl)-N—((S)-1-oxo-3-((S)-2-oxopyrrolidin-3-yl)propan-2-yl)-3-azabicyclo[3.1.0]hexane-2-carboxamide] | 259 nM | 48.2 nM | 47.9 nM | 53.2 nM | 23.2 nM | – | 34.6 nM | 36.7 nM |
| CC1(C)[C@@H]2[C@@H](C(=O)N[C@H](C=O)C[C@@H]3CCNC3=O)N(C(=O)CC3CCOCC3)C[C@@H]21 [Compound 86, (1R,2S,5S)-6,6-Dimethyl-N—((S)-1-oxo-3-((S)-2-oxopyrrolidin-3-yl)propan-2-yl)-3-(2-(tetrahydro-2H-pyran-4-yl)acetyl)-3-azabicyclo[3.1.0]hexane-2-carboxamide] | 318 nM | 69.5 nM | 52.5 nM | 78.8 nM | 33.7 nM | 39.7 nM | 34.2 nM | – |
| CC(C)c1ccc(Cl)c2[nH]c(C(=O)N3C[C@H]4[C@@H]([C@H]3C(=O)N[C@H](C=O)C[C@@H]3CCNC3=O)C4(C)C)cc12 [Compound 88, (1R,2S,5S)-3-(7-Chloro-4-isopropyl-1H-indole-2-carbonyl)-6,6-dimethyl-N—((S)-1-oxo-3-((S)-2-oxopyrrolidin-3-yl)propan-2-yl)-3-azabicyclo[3.1.0]hexane-2-carboxamide] | 239 nM | 46.2 nM | 44.9 nM | 68.5 nM | 21.2 nM | – | 41.5 nM | 40.3 nM |
| CC1(C)[C@@H]2[C@@H](C(=O)N[C@H](C=O)C[C@@H]3CCNC3=O)N(C(=O)c3cc4cc(Cl)ccc4[nH]3)C[C@@H]21 [Compound 89, (1R,2S,5S)-3-(5-Chloro-1H-indole-2-carbonyl)-6,6-dimethyl-N—((S)-1-oxo-3-((S)-2-oxopyrrolidin-3-yl)propan-2-yl)-3-azabicyclo[3.1.0]hexane-2-carboxamide] | 395 nM | 65.4 nM | 88.5 nM | 69.5 nM | 31 nM | 40.9 nM | 44.7 nM | – |
| Cn1c(C(=O)N2C[C@H]3[C@@H]([C@H]2C(=O)N[C@H](C=O)C[C@@H]2CCNC2=O)C3(C)C)cc2cc(Cl)ccc21 [Compound 90, (1R,2S,5S)-3-(5-Chloro-1-methyl-1H-indole-2-carbonyl)-6,6-dimethyl-N—((S)-1-oxo-3-((S)-2-oxopyrrolidin-3-yl)propan-2-yl)-3-azabicyclo[3.1.0]hexane-2-carboxamide] | 655 nM | 79.4 nM | 130 nM | 202 nM | 48 nM | 43.6 nM | 60.5 nM | – |
| COc1cccc2cc(C(=O)N3C[C@H]4[C@@H]([C@H]3C(=O)N[C@H](C=O)C[C@@H]3CCNC3=O)C4(C)C)[nH]c12 [Compound 91, (1R,2S,5S)-3-(7-Methoxy-1H-indole-2-carbonyl)-6,6-dimethyl-N—((S)-1-oxo-3-((S)-2-oxopyrrolidin-3-yl)propan-2-yl)-3-azabicyclo[3.1.0]hexane-2-carboxamide] | 396 nM | 83.3 nM | 110 nM | 215 nM | 61.1 nM | – | 92.9 nM | 43.9 nM |
